The test system of test [1] is 5xFAD mouse. Description: Morris water maze (MWM) task. It counts as in vivo. Particulars: for Escape latency (Increase or decrease compared to mutated mouse vehicle group): DAY 4; for time spent in the target quadrant (Increase or decrease compared to mutated mouse vehicle group): probe test DAY 5. The procedure:
The 5xFAD mouse used in this experiment was a genetically modified mouse model in which Alzheimer's disease-inducing genes were inserted. Specifically, mice over-expressed both the amyloid precursor protein with the Swedish mutation (K670N, M671L), the Florida mutation […], and the London mutation (V717I) and PS1 with the M146L and L286V mutations. The 5xFAD mouse model is the most widely used in Alzheimer's disease studies.
A Morris water maze (MWM) task was conducted to examine an effect on improving cognitive function depending on the administration of the complex composition of the present invention. The experimental equipment was comprised of a circular water tank (150 cm in diameter and 45 cm in height) filled with water having a temperature of about 22±2° C., an escape platform (10 cm in diameter and 30 cm in height), and 4 markers attached to the wall that allows the mouse to remember the location of the escape platform. The above markers remained unchanged throughout the test period. The escape platform was placed 1 cm above the water surface or 0.5 to 1.5 cm below the water surface according to the purpose of the experiment. When placed under the water surface, the water was made opaque with white water-based paint so that the escape platform was not visible to the eye. The Morris water maze was divided into four quadrants, i.e., northeast (NE), northwest (NW), southeast (SE) and southwest (SW), wherein the escape platform was placed in the center of the southwest quadrant, and the mouse started randomly from one of the others.
The escape platform was made visible on Learning DAY 0. Each mouse was trained to recognize that it was possible to escape when they swam toward the escape platform and landed thereon. On DAY 1-4, the escape platform was hidden by being placed under the water, and then the mice learned the position of the escape platform. The time limit was set to 60 seconds, and if the mouse found the escape platform within 60 seconds, it was allowed to stay on the escape platform for 5 seconds. The mice were then immediately transferred to the breeding cage. On DAY 5, the probe test was performed without the escape platform. The probe test was performed by placing the mouse in the farthest part of the quadrant where the escape platform was placed during the training day, and 60 seconds was set as the time limit. The indexes of cognitive function include the escape latency which is the time required for the mouse to find the escape platform and the time spent in the quadrant where the escape platform was placed. It was judged that the shorter the time it takes to escape (FIG. 2A) and the longer the mouse stays in the quadrant where the escape platform was placed (FIG. 2B), the better the memory and learning ability of the mouse.
Then, each group was subjected to oral administration for 4 weeks to perform the experiment.

In test [2] the test system is 5xFAD mouse. The test can be described thus: Y-maze test. Particulars: donepezil 2 mg/kg oral. It counts as in vivo.
Description: In order to test an improvement effect on short-term working memory ability according to the administration of the complex composition of the present invention, a Y-maze test was performed using the mouse model of the Alzheimer's disease described above. For the experiment, a Y-shaped maze (36 cm in width, 16 cm in length, 15 cm in height) having three arms was used, and the mice started randomly in three arms. The mice were placed in the maze, then the number of times when the center of the mouse body entered each arm and the cases in which the mice entered each arm sequentially were checked. The alternation behavior is defined as consecutive entries in three different arms without overlapping, and spontaneous alternation behavior was calculated by the following equation:
Alternation (%)=(the number of entities into all the 3 arms on consecutive/the number of entirety arms entries−2)×100
Then, each group was subjected to oral administration to perform the experiment.

For the molecule `COc1cc2c(cc1OC)C(=O)C(CC1CCN(Cc3ccccc3)CC1)C2` (stereo not drawn) [Donepezil, donepezil], in the test with 5xFAD mouse [1] (donepezil 1 mg/kg oral 4 weeks), the “Escape latency (Increase or decrease compared to mutated mouse vehicle group)” value is −20.15% and the “time spent in the target quadrant (Increase or decrease compared to mutated mouse vehicle group)” value came out at 51.63%. In addition, in the test on 5xFAD mouse [1] (donepezil 2 mg/kg oral 4 weeks), the “Escape latency (Increase or decrease compared to mutated mouse vehicle group)” value is reported as −33.79% and the “time spent in the target quadrant (Increase or decrease compared to mutated mouse vehicle group)” value is listed as 148.46%. In addition, in the test on 5xFAD mouse [1] (mutated mouse, donepezil 2 mg/kg alone, stated as reduction), the “escape latency reduced by, based on the mutant mouse vehicle group” value turned out to be 33.79%. Besides, in the test on 5xFAD mouse [2], the “Voluntary alternation behavior (Increase or decrease compared to mutated mouse vehicle group)” value is 25.15%.

Values taken from patent publication US20230405004A1 (NEURORIVE INC, priority 2020, published 2023).
